Results: ChEMBL document CHEMBL5052840, “Pharmaceutical compounds and therapeutic methods” (2020)

What was measured:
Assay type in all cases: ADME, organism-based
[1] = Plasma concentration in male C57BL/6 mouse at 10 mg/kg, ip administered as single dose measured at 0.08 hrs measured by LC/MS-MS analysis
[2] = Plasma concentration in male C57BL/6 mouse at 10 mg/kg, ip administered as single dose measured at 0.35 hrs measured by LC/MS-MS analysis
[3] = Plasma concentration in male C57BL/6 mouse at 10 mg/kg, po administered as single dose measured at 0.08 hrs measured by LC/MS-MS analysis
[4] = Brain concentration in male C57BL/6 mouse at 10 mg/kg, ip administered as single dose measured at 3 hrs measured by LC/MS-MS analysis; conditions: read-out: Drug uptake
[5] = Brain concentration in male C57BL/6 mouse at 10 mg/kg, po administered as single dose measured at 3 hrs measured by LC/MS-MS analysis; conditions: read-out: Drug uptake
[6] = Ratio of drug level in male C57BL/6 mouse brain to plasma at 10 mg/kg, ip administered as single dose measured at 0.08 hrs measured by LC/MS-MS analysis; conditions: read-out: BPR
[7] = Ratio of drug level in male C57BL/6 mouse brain to plasma at 10 mg/kg, ip administered as single dose measured at 0.35 hrs measured by LC/MS-MS analysis; conditions: read-out: BPR
[8] = Ratio of drug level in male C57BL/6 mouse brain to plasma at 10 mg/kg, ip administered as single dose measured at 1 hr measured by LC/MS-MS analysis; conditions: read-out: BPR
[9] = Plasma concentration in male C57BL/6 mouse at 10 mg/kg, iv administered as single dose measured at 0.35 hrs measured by LC/MS-MS analysis
[10] = Plasma concentration in male C57BL/6 mouse at 10 mg/kg, iv administered as single dose measured at 1 hr measured by LC/MS-MS analysis
[11] = Ratio of drug level in male C57BL/6 mouse brain to plasma at 10 mg/kg, iv administered as single dose measured at 1 hr measured by LC/MS-MS analysis; conditions: read-out: BPR
[12] = Ratio of drug level in male C57BL/6 mouse brain to plasma at 10 mg/kg, iv administered as single dose measured at 6 hrs measured by LC/MS-MS analysis; conditions: read-out: BPR

concentration at 0.08 h [1]: 713 ng/mL
concentration at 0.35 h [2]: 426 ng/mL
concentration at 0.08 h [3]: 175 ng/mL
concentration at 3 h [4]: 558 ng/g
concentration at 3 h [5]: 5.78 ng/g
Kp at 0.08 h [6]: 1.05
Kp at 0.35 h [7]: 0.96
Kp at 1 h [8]: 2.78
concentration at 0.35 h [9]: 535 ng/mL
concentration at 1 h [10]: 80.7 ng/mL
Kp at 1 h [11]: 1.67
Kp at 6 h [12]: 1.81
Structure (SMILES): Cc1nc2ccccn2c1-c1csc(Nc2ccc3c(c2)OC(F)(F)O3)n1.Cl
